How the values were obtained:
Assay in all cases: biochemical
Design in all cases: Thermo Fisher SelectScreen kinase panel: Z'-LYTE and Adapta activity, LanthaScreen binding
[1] = molecular target: TEC (Homo sapiens, UniProt P42680)
How it was run: (§1)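 Single-concentration panel: 10 µM GNE684 in KINOMEscan scanMAX binding (468 kinases) and in a 221-kinase panel run as Z'-LYTE/Adapta activity or LanthaScreen binding assays.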

[2] = molecular target: T1, CaMKII_beta (Homo sapiens, UniProt Q13554)
T1 construct: gene CAMK2B
How it was run: as §1

[3] = molecular target: BLK (Homo sapiens, UniProt P51451)
How it was run: as §1

[4] = molecular target: EPHA7 (Homo sapiens, UniProt Q15375)
How it was run: as §1

[5] = molecular target: T2, PhK_gamma2 (Homo sapiens, UniProt P15735)
T2 construct: gene PHKG2
How it was run: as §1

[6] = molecular target: T3, CaMKI_delta (Homo sapiens, UniProt Q8IU85)
T3 construct: gene CAMK1D
How it was run: as §1

[7] = molecular target: SRC (Homo sapiens, UniProt P12931)
How it was run: as §1

[8] = molecular target: T4, DRAK1 (Homo sapiens, UniProt Q9UEE5)
T4 construct: gene STK17A
How it was run: as §1

[9] = molecular target: NLK (Homo sapiens, UniProt Q9UBE8)
How it was run: as §1

[10] = molecular target: T5, IKK-beta (Homo sapiens, UniProt O14920)
T5 construct: gene IKBKB
How it was run: as §1

[11] = molecular target: HIPK2 (Homo sapiens, UniProt Q9H2X6)
How it was run: as §1

[12] = molecular target: LYN (Homo sapiens, UniProt P07948)
How it was run: as §1

[13] = molecular target: T6, CK1_alpha1 (Homo sapiens, UniProt P48729)
T6 construct: gene CSNK1A1
How it was run: as §1

[14] = molecular target: FLT4 (Homo sapiens, UniProt P35916)
How it was run: as §1

[15] = molecular target: SGK3 (Homo sapiens, UniProt Q96BR1)
How it was run: as §1

[16] = molecular target: T7, MLK2 (Homo sapiens, UniProt Q02779)
T7 construct: gene MAP3K10
How it was run: as §1

[17] = molecular target: JAK2 (Homo sapiens, UniProt O60674)
How it was run: as §1

[18] = molecular target: T8, Rse (Homo sapiens, UniProt Q06418)
T8 construct: gene TYRO3
How it was run: as §1

[19] = molecular target: SIK2 (Homo sapiens, UniProt Q9H0K1)
How it was run: as §1

[20] = molecular target: T9, MLK1 (Homo sapiens, UniProt P80192)
T9 construct: gene MAP3K9
How it was run: as §1

[21] = molecular target: WEE1 (Homo sapiens, UniProt P30291)
How it was run: as §1

[22] = molecular target: GRK5 (Homo sapiens, UniProt P34947)
How it was run: as §1

[23] = molecular target: PAK3 (Homo sapiens, UniProt O75914)
How it was run: as §1

TEC, sequence (P42680 whole entry): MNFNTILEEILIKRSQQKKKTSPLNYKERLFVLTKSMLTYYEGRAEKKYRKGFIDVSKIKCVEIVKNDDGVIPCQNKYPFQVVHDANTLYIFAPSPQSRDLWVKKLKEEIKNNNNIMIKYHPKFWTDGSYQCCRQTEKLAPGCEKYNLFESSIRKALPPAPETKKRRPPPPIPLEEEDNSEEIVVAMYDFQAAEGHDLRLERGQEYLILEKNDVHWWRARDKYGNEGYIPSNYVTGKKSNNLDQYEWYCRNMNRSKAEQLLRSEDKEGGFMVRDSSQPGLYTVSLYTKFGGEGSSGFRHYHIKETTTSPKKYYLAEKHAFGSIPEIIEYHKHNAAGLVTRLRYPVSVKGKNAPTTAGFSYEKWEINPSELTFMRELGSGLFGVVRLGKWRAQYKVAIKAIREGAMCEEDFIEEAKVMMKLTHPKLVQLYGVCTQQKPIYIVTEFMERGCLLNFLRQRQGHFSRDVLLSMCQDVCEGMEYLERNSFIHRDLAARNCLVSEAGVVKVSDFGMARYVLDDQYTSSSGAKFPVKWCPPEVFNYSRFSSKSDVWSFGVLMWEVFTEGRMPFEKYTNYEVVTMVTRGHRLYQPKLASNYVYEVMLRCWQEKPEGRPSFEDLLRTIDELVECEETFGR
T7 sequence (Q02779 whole entry): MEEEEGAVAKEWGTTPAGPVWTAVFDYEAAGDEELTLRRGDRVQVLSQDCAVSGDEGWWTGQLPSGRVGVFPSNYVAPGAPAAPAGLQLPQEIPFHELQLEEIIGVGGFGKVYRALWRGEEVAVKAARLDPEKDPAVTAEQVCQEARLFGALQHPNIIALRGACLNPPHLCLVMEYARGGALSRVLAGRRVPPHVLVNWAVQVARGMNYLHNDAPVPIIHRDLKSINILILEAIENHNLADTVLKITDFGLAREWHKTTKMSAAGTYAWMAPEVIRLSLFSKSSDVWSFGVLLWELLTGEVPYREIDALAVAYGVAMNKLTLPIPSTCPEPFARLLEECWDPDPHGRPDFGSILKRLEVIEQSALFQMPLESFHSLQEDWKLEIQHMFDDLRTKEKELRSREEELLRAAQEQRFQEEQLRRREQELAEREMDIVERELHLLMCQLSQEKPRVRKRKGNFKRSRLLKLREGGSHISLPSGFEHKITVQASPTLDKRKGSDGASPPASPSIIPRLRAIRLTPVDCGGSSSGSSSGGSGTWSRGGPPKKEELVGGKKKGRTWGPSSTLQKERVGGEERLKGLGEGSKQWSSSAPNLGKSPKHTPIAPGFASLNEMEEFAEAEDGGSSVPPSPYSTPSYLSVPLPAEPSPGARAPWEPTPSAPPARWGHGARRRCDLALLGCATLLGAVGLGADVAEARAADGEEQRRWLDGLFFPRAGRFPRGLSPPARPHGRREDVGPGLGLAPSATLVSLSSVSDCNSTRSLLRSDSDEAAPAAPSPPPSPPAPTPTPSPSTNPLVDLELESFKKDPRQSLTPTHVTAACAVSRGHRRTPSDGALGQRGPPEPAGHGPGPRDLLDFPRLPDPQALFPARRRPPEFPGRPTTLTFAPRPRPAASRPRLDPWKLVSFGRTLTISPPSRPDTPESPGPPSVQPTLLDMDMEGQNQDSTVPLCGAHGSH
T2 sequence (P15735 whole entry): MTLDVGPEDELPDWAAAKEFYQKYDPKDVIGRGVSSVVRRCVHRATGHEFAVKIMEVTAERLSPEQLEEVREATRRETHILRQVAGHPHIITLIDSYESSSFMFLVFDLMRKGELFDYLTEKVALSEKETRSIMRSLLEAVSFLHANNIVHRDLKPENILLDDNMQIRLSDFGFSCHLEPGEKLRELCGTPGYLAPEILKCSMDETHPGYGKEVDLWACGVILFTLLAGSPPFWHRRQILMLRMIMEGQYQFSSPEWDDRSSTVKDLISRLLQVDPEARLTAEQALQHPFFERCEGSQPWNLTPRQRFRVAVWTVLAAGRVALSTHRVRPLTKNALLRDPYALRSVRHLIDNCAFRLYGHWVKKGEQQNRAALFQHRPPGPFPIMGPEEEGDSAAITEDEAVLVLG
T4 sequence (Q9UEE5 whole entry): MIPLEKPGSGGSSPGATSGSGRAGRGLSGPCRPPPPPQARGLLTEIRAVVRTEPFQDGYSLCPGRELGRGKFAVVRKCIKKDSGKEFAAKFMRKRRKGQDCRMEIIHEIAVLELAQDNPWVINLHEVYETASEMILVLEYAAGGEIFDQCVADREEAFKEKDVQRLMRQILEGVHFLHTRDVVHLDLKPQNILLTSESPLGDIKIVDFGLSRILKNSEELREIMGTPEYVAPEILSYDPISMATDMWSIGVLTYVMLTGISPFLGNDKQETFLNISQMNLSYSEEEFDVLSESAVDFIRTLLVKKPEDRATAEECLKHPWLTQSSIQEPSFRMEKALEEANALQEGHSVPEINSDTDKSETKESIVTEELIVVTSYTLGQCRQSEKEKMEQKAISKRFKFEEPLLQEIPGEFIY
PAK3, sequence (O75914 whole entry): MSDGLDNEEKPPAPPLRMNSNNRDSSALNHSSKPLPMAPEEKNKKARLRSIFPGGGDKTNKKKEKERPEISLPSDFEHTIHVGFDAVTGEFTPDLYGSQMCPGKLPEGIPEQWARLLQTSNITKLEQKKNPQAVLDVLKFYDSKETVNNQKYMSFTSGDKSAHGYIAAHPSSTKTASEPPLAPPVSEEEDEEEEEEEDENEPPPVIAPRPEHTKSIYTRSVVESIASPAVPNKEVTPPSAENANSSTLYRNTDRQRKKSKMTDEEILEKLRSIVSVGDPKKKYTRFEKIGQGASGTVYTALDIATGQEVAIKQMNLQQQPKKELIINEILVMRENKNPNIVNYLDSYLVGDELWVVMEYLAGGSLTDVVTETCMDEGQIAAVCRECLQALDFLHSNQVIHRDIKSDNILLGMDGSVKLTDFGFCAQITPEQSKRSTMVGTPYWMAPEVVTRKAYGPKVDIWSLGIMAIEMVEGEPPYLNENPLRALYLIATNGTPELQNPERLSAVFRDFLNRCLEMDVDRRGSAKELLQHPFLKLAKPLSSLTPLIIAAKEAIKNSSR
T5 sequence (O14920 whole entry): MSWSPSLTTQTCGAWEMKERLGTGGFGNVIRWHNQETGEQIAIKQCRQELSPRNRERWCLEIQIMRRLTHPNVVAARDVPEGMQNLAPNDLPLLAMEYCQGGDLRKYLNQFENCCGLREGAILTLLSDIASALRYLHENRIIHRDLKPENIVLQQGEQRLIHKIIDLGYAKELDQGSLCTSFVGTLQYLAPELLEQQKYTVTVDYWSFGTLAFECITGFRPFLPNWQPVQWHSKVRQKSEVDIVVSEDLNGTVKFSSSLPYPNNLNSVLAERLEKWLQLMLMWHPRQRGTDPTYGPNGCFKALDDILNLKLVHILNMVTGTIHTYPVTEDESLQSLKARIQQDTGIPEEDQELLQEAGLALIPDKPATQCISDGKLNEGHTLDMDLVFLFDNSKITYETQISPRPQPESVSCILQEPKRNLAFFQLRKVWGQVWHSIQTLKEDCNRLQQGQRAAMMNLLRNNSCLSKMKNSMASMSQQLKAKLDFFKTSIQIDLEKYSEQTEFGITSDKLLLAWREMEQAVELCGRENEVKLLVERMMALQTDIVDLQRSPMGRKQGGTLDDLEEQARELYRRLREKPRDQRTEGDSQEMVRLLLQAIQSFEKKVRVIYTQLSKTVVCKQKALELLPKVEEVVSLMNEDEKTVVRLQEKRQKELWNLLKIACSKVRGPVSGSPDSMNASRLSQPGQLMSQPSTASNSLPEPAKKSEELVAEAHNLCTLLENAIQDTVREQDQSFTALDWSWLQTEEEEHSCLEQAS
T6 sequence (P48729 whole entry): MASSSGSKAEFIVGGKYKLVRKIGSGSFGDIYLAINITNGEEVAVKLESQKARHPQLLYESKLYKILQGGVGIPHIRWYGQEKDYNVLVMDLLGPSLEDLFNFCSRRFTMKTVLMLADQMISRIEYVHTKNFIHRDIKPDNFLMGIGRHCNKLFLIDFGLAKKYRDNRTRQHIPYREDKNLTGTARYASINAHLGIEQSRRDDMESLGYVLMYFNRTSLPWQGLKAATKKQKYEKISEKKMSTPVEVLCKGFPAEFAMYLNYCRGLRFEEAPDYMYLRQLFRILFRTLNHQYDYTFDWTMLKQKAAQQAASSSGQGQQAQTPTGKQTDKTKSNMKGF
SGK3, sequence (Q96BR1 whole entry): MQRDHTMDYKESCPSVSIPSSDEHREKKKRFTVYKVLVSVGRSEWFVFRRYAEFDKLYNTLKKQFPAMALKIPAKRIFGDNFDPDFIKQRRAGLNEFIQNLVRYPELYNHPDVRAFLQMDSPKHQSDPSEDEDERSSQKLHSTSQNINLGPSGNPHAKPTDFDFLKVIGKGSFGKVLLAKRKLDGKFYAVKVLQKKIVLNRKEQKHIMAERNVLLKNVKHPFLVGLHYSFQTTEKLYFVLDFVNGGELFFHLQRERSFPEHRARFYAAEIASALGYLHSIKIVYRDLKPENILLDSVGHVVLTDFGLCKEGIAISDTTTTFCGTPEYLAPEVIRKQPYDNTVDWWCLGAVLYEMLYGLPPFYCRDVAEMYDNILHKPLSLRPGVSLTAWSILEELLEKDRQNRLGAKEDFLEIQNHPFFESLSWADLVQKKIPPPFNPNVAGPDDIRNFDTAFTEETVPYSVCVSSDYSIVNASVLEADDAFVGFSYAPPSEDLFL
T3 sequence (Q8IU85 whole entry): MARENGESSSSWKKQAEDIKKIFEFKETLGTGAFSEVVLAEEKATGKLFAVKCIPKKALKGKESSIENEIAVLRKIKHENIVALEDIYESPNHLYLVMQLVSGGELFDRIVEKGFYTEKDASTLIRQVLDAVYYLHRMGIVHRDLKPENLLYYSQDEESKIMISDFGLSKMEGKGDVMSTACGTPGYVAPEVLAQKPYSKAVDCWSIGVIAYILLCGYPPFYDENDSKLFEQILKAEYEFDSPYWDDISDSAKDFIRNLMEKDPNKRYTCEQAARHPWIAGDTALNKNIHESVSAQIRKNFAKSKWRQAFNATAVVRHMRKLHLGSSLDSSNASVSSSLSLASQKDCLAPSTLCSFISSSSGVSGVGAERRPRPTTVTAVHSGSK

`COc1cc2c(cn1)N(C)C(=O)[C@@H](NC(=O)c1nc3n(n1)[C@H](c1ccccc1)CC3)CC2` [GNE684, (S)-N-((S)-7-methoxy-1-methyl-2-oxo-2,3,4,5-tetrahydro-1H-pyrido[3,4-b]azepin-3-yl)-5-phenyl-6,7-dihydro-5H-pyrrolo[1,2-b][1,2,4]triazole-2-carboxamide] was tested, and the inhibition at 10 µM [1] was -1%, the inhibition at 10 µM [2] was 2.5% and the inhibition at 10 µM [3] was 6.5%. For the same molecule, the inhibition at 10 µM [4] was -4%, the inhibition at 10 µM [5] was 1% and the inhibition at 10 µM [6] was 7.5%. It also gave an inhibition at 10 µM [7] of -1%, an inhibition at 10 µM [8] of 0.5% and an inhibition at 10 µM [9] of -0.5%. The inhibition at 10 µM [10] was 8.5%, the inhibition at 10 µM [11] was -1.5% and the inhibition at 10 µM [12] was 7%. The inhibition at 10 µM [13] was 3%, the inhibition at 10 µM [14] was 14% and the inhibition at 10 µM [15] was 1.5%. The inhibition at 10 µM [16] was 0%, the inhibition at 10 µM [17] was 2.5% and the inhibition at 10 µM [18] was 5%. The inhibition at 10 µM [19] was 8.5%, the inhibition at 10 µM [20] was 7.5% and the inhibition at 10 µM [21] was 0.5%. The inhibition at 10 µM [22] was 4.5% and the inhibition at 10 µM [23] was 6%.
